Reference: publication PMC5218480 (PLoS ONE, 2017)

System: MV-4-11 cells
Assay: Gene expression microarray analysis (Affymetrix PrimeView) and GSEA
Assay type: cell-based, human
Set-up: RFU PODN (11730768_x_at) / Fold change /veh PODN (11730768_x_at) / RFU LINC00158 (11744669_a_at) / Fold change /veh LINC00158 (11744669_a_at) / RFU DUSP10 (11751237_a_at) / Fold change /veh DUSP10 (11751237_a_at) / RFU ID3 (11757404_x_at) / Fold change /veh ID3 (11757404_x_at) / RFU PLEKHG5 (11737974_s_at) / Fold change /veh PLEKHG5 (11737974_s_at) / RFU LRRC4B (11730491_at) / Fold change /veh LRRC4B (11730491_at) / RFU GIMAP4 (11747438_a_at) / Fold change /veh GIMAP4 (11747438_a_at) / RFU KRT8 (11758183_x_at) / Fold change /veh KRT8 (11758183_x_at) / RFU CNN1 (11734310_a_at) / Fold change /veh CNN1 (11734310_a_at) / RFU VPS37D (11726825_at) / Fold change /veh VPS37D (11726825_at) / RFU C10orf10 (11716522_x_at) / Fold change /veh C10orf10 (11716522_x_at) / RFU KIR2DL2 /// KIR2DL4 /// KIR2DL5A /// KIR2DL5B /// KIR2DS1 /// KIR2DS2 /// KIR2DS3 /// KIR2DS4 /// KIR3DL3 /// KIR3DL3 /// KIR3DS1 (11738374_at) / Fold change /veh KIR2DL2 /// KIR2DL4 /// KIR2DL5A /// KIR2DL5B /// KIR2DS1 /// KIR2DS2 /// KIR2DS3 /// KIR2DS4 /// KIR3DL3 /// KIR3DL3 /// KIR3DS1 (11738374_at) / RFU C1QL1 (11718748_at) / Fold change /veh C1QL1 (11718748_at) / RFU TMPRSS4 (11747572_a_at) / Fold change /veh TMPRSS4 (11747572_a_at) / RFU HAMP (11756126_x_at) / Fold change /veh HAMP (11756126_x_at) / RFU RNFT2 (11725882_a_at) / Fold change /veh RNFT2 (11725882_a_at) / RFU NR4A2 (11747474_a_at) / Fold change /veh NR4A2 (11747474_a_at) / RFU ABCC12 (11746883_a_at) / Fold change /veh ABCC12 (11746883_a_at) / RFU TMEM136 (11760407_x_at) / Fold change /veh TMEM136 (11760407_x_at) / RFU CLDN22 /// WWC2 (11732394_at) / Fold change /veh CLDN22 /// WWC2 (11732394_at) / RFU HLA-DPB1 (11760878_x_at) / Fold change /veh HLA-DPB1 (11760878_x_at) / RFU SPINT1 (11716480_a_at) / Fold change /veh SPINT1 (11716480_a_at) / RFU GAP43 (11754022_s_at) / Fold change /veh GAP43 (11754022_s_at) / RFU A4GNT (11735810_at) / Fold change /veh A4GNT (11735810_at) / RFU PRB3 (11715151_x_at) / Fold change /veh PRB3 (11715151_x_at) / RFU TUBB4B (11761932_at) / Fold change /veh TUBB4B (11761932_at) / RFU CAPN14 (11732068_a_at) / Fold change /veh CAPN14 (11732068_a_at) / RFU TMCC2 (11721928_a_at) / Fold change /veh TMCC2 (11721928_a_at) / RFU IRGQ (11745062_a_at) / Fold change /veh IRGQ (11745062_a_at) / RFU FAM174B (11720279_a_at) / Fold change /veh FAM174B (11720279_a_at) / RFU TMPRSS4 (11748680_a_at) / Fold change /veh TMPRSS4 (11748680_a_at) / RFU FAM212B (11763350_a_at) / Fold change /veh FAM212B (11763350_a_at) / RFU PLEKHG5 (11743358_a_at) / Fold change /veh PLEKHG5 (11743358_a_at) / RFU ZSCAN30 (11745921_a_at) / Fold change /veh ZSCAN30 (11745921_a_at) / RFU CMKLR1 (11741424_a_at) / Fold change /veh CMKLR1 (11741424_a_at) / RFU LOC101060620 /// MAPK8IP1 (11723275_at) / Fold change /veh LOC101060620 /// MAPK8IP1 (11723275_at) / RFU SPTSSB (11747773_x_at) / Fold change /veh SPTSSB (11747773_x_at) / RFU PRSS12 (11739890_at) / Fold change /veh PRSS12 (11739890_at) / RFU BIN1 (11741810_x_at) / Fold change /veh BIN1 (11741810_x_at) / RFU WNT11 (11732464_a_at) / Fold change /veh WNT11 (11732464_a_at) / RFU C10orf10 (11716521_a_at) / Fold change /veh C10orf10 (11716521_a_at) / RFU C5orf56 (11738089_at) / Fold change /veh C5orf56 (11738089_at) / RFU CYB561 (11721691_x_at) / Fold change /veh CYB561 (11721691_x_at) / RFU ANKRD19P (11752326_a_at) / Fold change /veh ANKRD19P (11752326_a_at) / RFU OR2T12 /// OR2T33 /// OR2T8 (11738714_s_at) / Fold change /veh OR2T12 /// OR2T33 /// OR2T8 (11738714_s_at) / RFU VCAN (11748164_a_at) / Fold change /veh VCAN (11748164_a_at) / RFU JSRP1 (11732532_at) / Fold change /veh JSRP1 (11732532_at) / RFU KRTAP10-11 (11738290_x_at) / Fold change /veh KRTAP10-11 (11738290_x_at) / RFU MYO3A (11730013_a_at) / Fold change /veh MYO3A (11730013_a_at) / RFU EBF3 (11725865_a_at) / Fold change /veh EBF3 (11725865_a_at) / RFU CAMK2N1 (11719241_x_at) / Fold change /veh CAMK2N1 (11719241_x_at) / RFU C5orf56 (11738088_a_at) / Fold change /veh C5orf56 (11738088_a_at) / RFU OLFML3 (11715873_a_at) / Fold change /veh OLFML3 (11715873_a_at) / RFU LOC100653217 /// NTM (11731650_a_at) / Fold change /veh LOC100653217 /// NTM (11731650_a_at) / RFU MAPK11 (11762145_a_at) / Fold change /veh MAPK11 (11762145_a_at) / RFU FIZ1 (11724087_x_at) / Fold change /veh FIZ1 (11724087_x_at) / RFU OASL (11726364_x_at) / Fold change /veh OASL (11726364_x_at) / RFU SOX15 (11748057_x_at) / Fold change /veh SOX15 (11748057_x_at) / RFU CD79A (11719716_a_at) / Fold change /veh CD79A (11719716_a_at) / RFU HIST1H1D (11736915_at) / Fold change /veh HIST1H1D (11736915_at) / RFU CASKIN2 (11723855_a_at) / Fold change /veh CASKIN2 (11723855_a_at) / RFU LOC730098 (11760151_x_at) / Fold change /veh LOC730098 (11760151_x_at) / RFU OR4N2 (11742367_at) / Fold change /veh OR4N2 (11742367_at) / RFU PRRT2 (11749266_a_at) / Fold change /veh PRRT2 (11749266_a_at) / RFU SNX32 (11753110_a_at) / Fold change /veh SNX32 (11753110_a_at) / RFU CDHR5 (11726645_a_at) / Fold change /veh CDHR5 (11726645_a_at) / RFU RCAN1 (11760418_a_at) / Fold change /veh RCAN1 (11760418_a_at) / RFU FAM167A (11723789_a_at) / Fold change /veh FAM167A (11723789_a_at) / RFU FAM26E (11764081_at) / Fold change /veh FAM26E (11764081_at) / RFU ISYNA1 (11749810_s_at) / Fold change /veh ISYNA1 (11749810_s_at) / RFU ACY1 (11761880_at) / Fold change /veh ACY1 (11761880_at) / RFU 11764098_at / Fold change /veh 11764098_at / RFU SAMD14 (11745864_x_at) / Fold change /veh SAMD14 (11745864_x_at) / RFU NPB (11741838_a_at) / Fold change /veh NPB (11741838_a_at) / RFU TMPRSS6 (11731388_a_at) / Fold change /veh TMPRSS6 (11731388_a_at) / RFU KRTAP10-2 (11738614_at) / Fold change /veh KRTAP10-2 (11738614_at) / RFU ARHGAP8 /// PRR5-ARHGAP8 (11727945_x_at) / Fold change /veh ARHGAP8 /// PRR5-ARHGAP8 (11727945_x_at) / RFU KRTAP5-7 /// NADSYN1 (11734609_at) / Fold change /veh KRTAP5-7 /// NADSYN1 (11734609_at) / RFU RASL12 (11751679_a_at) / Fold change /veh RASL12 (11751679_a_at) / RFU CDKN2B (11736163_a_at) / Fold change /veh CDKN2B (11736163_a_at) / RFU PRF1 (11729649_at) / Fold change /veh PRF1 (11729649_at) / RFU, ZNF638 /// ZNF638-IT1 / Fold change vs veh, ZNF638 /// ZNF638-IT1 / RFU, PANK3 / Fold change vs veh, PANK3 / RFU, SH3YL1 / Fold change vs veh, SH3YL1 / RFU, ZEB2 / Fold change vs veh, ZEB2 / RFU, NRIP1 / Fold change vs veh, NRIP1 / RFU, PTTG1IP / Fold change vs veh, PTTG1IP / RFU, CAPN2 / Fold change vs veh, CAPN2 / RFU, MED14 / Fold change vs veh, MED14 / RFU, SNORA58 / Fold change vs veh, SNORA58 / RFU, C1orf63 / Fold change vs veh, C1orf63 / RFU, LRRFIP1 / Fold change vs veh, LRRFIP1 / RFU, NDUFAF7 / Fold change vs veh, NDUFAF7 / RFU, SLC12A2 / Fold change vs veh, SLC12A2 / RFU, IBTK / Fold change vs veh, IBTK / RFU, ESF1 / Fold change vs veh, ESF1 / Fold change vs veh, TMEM50B / RFU, TAOK1 / Fold change vs veh, TAOK1 / RFU, ACBD3 / Fold change vs veh, ACBD3 / RFU, TMA16 / Fold change vs veh, TMA16 / RFU, RWDD3 / Fold change vs veh, RWDD3 / RFU, BCAT1 / Fold change vs veh, BCAT1 / RFU, EDEM3 / Fold change vs veh, EDEM3 / RFU, TMEM33 / Fold change vs veh, TMEM33 / RFU, WDR75 / Fold change vs veh, WDR75 / RFU, AHCTF1 / Fold change vs veh, AHCTF1 / RFU, TFRC / Fold change vs veh, TFRC / RFU, ZDHHC17 / Fold change vs veh, ZDHHC17 / RFU, NOM1 / Fold change vs veh, NOM1 / RFU, ARL8B / Fold change vs veh, ARL8B / RFU, ZBTB11 / Fold change vs veh, ZBTB11 / RFU, TAMM41 / Fold change vs veh, TAMM41 / RFU, KIAA1704 /// LOC100996395 / Fold change vs veh, KIAA1704 /// LOC100996395 / RFU, ING1 / Fold change vs veh, ING1 / RFU, TRMT61B / Fold change vs veh, TRMT61B / RFU, FUBP3 / Fold change vs veh, FUBP3 / RFU, TP53 / Fold change vs veh, TP53 / RFU, TNKS2 / Fold change vs veh, TNKS2 / RFU, ZFP14 / Fold change vs veh, ZFP14 / RFU, ACTR2 / Fold change vs veh, ACTR2 / RFU, PPP3R1 / Fold change vs veh, PPP3R1 / RFU, PIK3R1 / Fold change vs veh, PIK3R1 / RFU, HNRNPA1 / Fold change vs veh, HNRNPA1 / RFU, RNF170 / Fold change vs veh, RNF170 / RFU, ZNF28 / Fold change vs veh, ZNF28 / RFU, RNGTT / Fold change vs veh, RNGTT / RFU, OGT / Fold change vs veh, OGT / RFU, BRD1 / Fold change vs veh, BRD1 / RFU, MARS / Fold change vs veh, MARS / RFU, ZNF655 / Fold change vs veh, ZNF655 / RFU, FAHD1 / Fold change vs veh, FAHD1 / RFU, BDP1 / Fold change vs veh, BDP1 / RFU, LRRCC1 / Fold change vs veh, LRRCC1 / RFU, ARID1A / Fold change vs veh, ARID1A / RFU, ZNF146 / Fold change vs veh, ZNF146 / RFU, ZNF330 / Fold change vs veh, ZNF330 / RFU, GPN3 / Fold change vs veh, GPN3 / RFU, C9orf123 / Fold change vs veh, C9orf123 / RFU, N4BP2L2 / Fold change vs veh, N4BP2L2 / RFU, ARFIP1 / Fold change vs veh, ARFIP1 / RFU, FAM179B / Fold change vs veh, FAM179B / RFU, BCL10 / Fold change vs veh, BCL10 / RFU, UHRF1BP1L / Fold change vs veh, UHRF1BP1L / RFU, BET1 / Fold change vs veh, BET1 / RFU, CNOT2 / Fold change vs veh, CNOT2 / RFU, ZNF268 / Fold change vs veh, ZNF268 / Fold change vs veh, ZNF507 / RFU, DGCR2 / Fold change vs veh, DGCR2 / RFU, WDSUB1 / Fold change vs veh, WDSUB1 / Fold change vs veh, HSP90B1 /// MIR3652 / RFU, ADSS / Fold change vs veh, ADSS / RFU, GK / Fold change vs veh, GK / RFU, ZNF148 / Fold change vs veh, ZNF148 / RFU, TAF9 / Fold change vs veh, TAF9 / RFU, SLC1A5 / Fold change vs veh, SLC1A5 / RFU, SLMO2 / Fold change vs veh, SLMO2 / RFU, ABCC4 / Fold change vs veh, ABCC4 / RFU, LOC101060439 /// RAP1B / Fold change vs veh, LOC101060439 /// RAP1B / RFU, RFX7 / Fold change vs veh, RFX7 / RFU, GTPBP10 / Fold change vs veh, GTPBP10 / RFU, CNEP1R1 / Fold change vs veh, CNEP1R1 / RFU, BIVM-ERCC5 /// ERCC5 / Fold change vs veh, BIVM-ERCC5 /// ERCC5 / RFU, ILF3 / Fold change vs veh, ILF3 / RFU 11762660_at / Fold change /veh 11762660_at / RFU VCAN (11757783_s_at) / Fold change /veh VCAN (11757783_s_at) / RFU DDX43 (11728927_at) / Fold change /veh DDX43 (11728927_at) / RFU KRT8 (11758188_x_at) / Fold change /veh KRT8 (11758188_x_at) / RFU NKD1 (11759106_at) / Fold change /veh NKD1 (11759106_at) / RFU SRD5A1 (11742802_a_at) / Fold change /veh SRD5A1 (11742802_a_at) / RFU TPSAB1 /// TPSB2 (11721975_s_at) / Fold change /veh TPSAB1 /// TPSB2 (11721975_s_at) / RFU GSTM3 (11746129_a_at) / Fold change /veh GSTM3 (11746129_a_at) / RFU IL23R (11737362_x_at) / Fold change /veh IL23R (11737362_x_at) / RFU TMEM51 (11727254_a_at) / Fold change /veh TMEM51 (11727254_a_at) / RFU PIWIL2 (11732686_x_at) / Fold change /veh PIWIL2 (11732686_x_at) / RFU ORM1 (11744905_x_at) / Fold change /veh ORM1 (11744905_x_at) / RFU CCDC152 (11743942_at) / Fold change /veh CCDC152 (11743942_at) / RFU ECM1 (11717891_a_at) / Fold change /veh ECM1 (11717891_a_at) / RFU IL23R (11748794_a_at) / Fold change /veh IL23R (11748794_a_at) / RFU TNFAIP8L3 (11732012_x_at) / Fold change /veh TNFAIP8L3 (11732012_x_at) / RFU MBOAT4 (11741988_at) / Fold change /veh MBOAT4 (11741988_at) / RFU 11764193_at / Fold change /veh 11764193_at / RFU TMEM53 (11763286_at) / Fold change /veh TMEM53 (11763286_at) / RFU MAGEB2 (11727129_at) / Fold change /veh MAGEB2 (11727129_at) / RFU TMEM200A (11744735_a_at) / Fold change /veh TMEM200A (11744735_a_at) / RFU CCDC152 (11751479_a_at) / Fold change /veh CCDC152 (11751479_a_at) / RFU FAM211A (11726209_a_at) / Fold change /veh FAM211A (11726209_a_at) / RFU RGS16 (11746705_a_at) / Fold change /veh RGS16 (11746705_a_at) / RFU VCAN (11755009_s_at) / Fold change /veh VCAN (11755009_s_at) / RFU RHOB (11743442_s_at) / Fold change /veh RHOB (11743442_s_at) / RFU RGS16 (11720943_a_at) / Fold change /veh RGS16 (11720943_a_at) / RFU RGS16 (11720944_at) / Fold change /veh RGS16 (11720944_at) / RFU, VPS4B / Fold change vs veh, VPS4B / RFU, CREB1 / Fold change vs veh, CREB1 / RFU, DNAJC13 / Fold change vs veh, DNAJC13 / RFU, GNAQ / Fold change vs veh, GNAQ / RFU, CDK5R1 / Fold change vs veh, CDK5R1 / RFU, ZRANB3 / Fold change vs veh, ZRANB3 / RFU, CUL4A / Fold change vs veh, CUL4A / RFU, CCNY / Fold change vs veh, CCNY / RFU, UFL1 / Fold change vs veh, UFL1 / RFU, COG3 / Fold change vs veh, COG3 / RFU, DIAPH2 / Fold change vs veh, DIAPH2 / RFU, SKA2 / Fold change vs veh, SKA2 / RFU, AFF3 / Fold change vs veh, AFF3 / RFU, LMF1 / Fold change vs veh, LMF1 / RFU, IPO11 / Fold change vs veh, IPO11 / RFU, DFFB / Fold change vs veh, DFFB / RFU, FOXP1 / Fold change vs veh, FOXP1 / RFU, CARD8 / Fold change vs veh, CARD8 / RFU, STRN3 / Fold change vs veh, STRN3 / RFU, ADK / Fold change vs veh, ADK / RFU, RASSF2 / Fold change vs veh, RASSF2 / RFU, WIPF1 / Fold change vs veh, WIPF1 / RFU, LARP1B / Fold change vs veh, LARP1B / RFU, RASA1 / Fold change vs veh, RASA1 / RFU, RB1 / Fold change vs veh, RB1 / RFU, PPFIA1 / Fold change vs veh, PPFIA1 / RFU, MAT2A / Fold change vs veh, MAT2A / RFU, CCT5 / Fold change vs veh, CCT5 / RFU, WDR92 / Fold change vs veh, WDR92 / RFU, CUX1 / Fold change vs veh, CUX1 / RFU, TTC7A / Fold change vs veh, TTC7A / RFU, TMEM135 / Fold change vs veh, TMEM135 / RFU, DEPTOR / Fold change vs veh, DEPTOR / RFU, CPM / Fold change vs veh, CPM / RFU, DNAJB6 / Fold change vs veh, DNAJB6 / RFU, CACNA2D3 / Fold change vs veh, CACNA2D3 / RFU, DTX4 / Fold change vs veh, DTX4 / RFU, TFCP2 / Fold change vs veh, TFCP2 / RFU, GMCL1 /// GMCL1P1 / Fold change vs veh, GMCL1 /// GMCL1P1 / RFU, AEBP2 / Fold change vs veh, AEBP2 / RFU, SNHG1 /// SNORD22 /// SNORD25 /// SNORD26 /// SNORD27 /// SNORD28 /// SNORD29 /// SNORD31 / Fold change vs veh, SNHG1 /// SNORD22 /// SNORD25 /// SNORD26 /// SNORD27 /// SNORD28 /// SNORD29 /// SNORD31 / Fold change (Aza/veh), C12orf56 (ProbeSet 11735607_a_at) / Fold change (ACY-1035/veh), C12orf56 (ProbeSet 11735607_a_at) / Fold change (Aza/veh), FGFR1OP (ProbeSet 11751329_s_at) / Fold change (ACY-1035/veh), FGFR1OP (ProbeSet 11751329_s_at) / Fold change (Aza/veh), VPS36 (ProbeSet 11739960_a_at) / Fold change (ACY-1035/veh), VPS36 (ProbeSet 11739960_a_at) / RFU SYPL1 (11715823_x_at) / Fold change /veh SYPL1 (11715823_x_at) / RFU IGFBP7 (11715501_s_at) / Fold change /veh IGFBP7 (11715501_s_at) / RFU REEP3 (11722064_at) / Fold change /veh REEP3 (11722064_at) / RFU IGLL1 (11728026_x_at) / Fold change /veh IGLL1 (11728026_x_at): dose or concentration left out as unconfirmed
Conditions: ProbeSet 11755159_a_at; LIST D

Compound: Nc1ncn([C@@H]2O[C@H](CO)[C@@H](O)[C@H]2O)c(=O)n1 [azacitidine]
- RFU, COG3: 74.05 RFU
